Results as given in US20240300940A1, “Phenothiazinyl Compounds and Uses” (Prosetta Biosciences, Inc., priority 2023, published 2024).
Read-outs that look alike come from different tables or passages of the source.

Assays:
[1] = tested on: S. epidermidis ATCC14990; assay: MIC assay, serial dilution; settings: Staphylococcus epidermidis
[2] = tested on: MRSA ATCC 43300; assay: Minimum biofilm inhibition assay; format: cell-based, S. aureus
Procedure: The biofilm susceptibility assay and calculation of the percent reduction of AB were performed as described previously (Pettit et al., Antimicrob Agents Chem 2005, 49:2612-17). Biofilm formation was induced by growing MRSA on TSA containing 2% glucose at 37° C. for 24 hrs. After the incubation, culture was used to adjust the cell number to 1-5×10^5 CFU/mL. In parallel, two-fold dilutions of test drug/antibiotic in DMSO/solvent was prepared separately in a PCR dilution plate. 100 μL of CFU adjusted 100 μL of culture was added to 96 well plate by leaving wells for only media control. After adding culture, 2-fold diluted compound in 100% DMSO was added to 96 well plate and plates were incubated another 16-20 hrs at 37° C., to check susceptibility of biofilm forming MRSA with test drug/antibiotic. After susceptibility incubation, Resazurin was added to check inhibition of biofilm forming cells.

[3] = tested on: S. aureus ATCC25923; assay: MIC assay, serial dilution; settings: Staphylococcus aureus
[4] = tested on: Hennes-20 cells; assay: Hennes-20 oncology screen; format: cell-based; settings: 72 h, alamar Blue
Outline: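 Cells seeded at 500 and 15,000 per well in minimum essential medium, dosed with a compound titration after 24 h, then incubated 72 h at 37 °C. Alamar Blue added and incubated a further 72 h, read at 530/590. Lower signal only at low density indicates proliferation arrest; lower signal at both densities indicates toxicity.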

[5] = tested on: E. faecalis ATCC29212; assay: Minimum bactericidal concentration assay; format: cell-based; settings: Enterococcus faecalis
Procedure: (§1) The study was done based on CLSI document M26-A Wayne, PA: Clinical and laboratory standard institute: 1999.
(§2) After determination of a MIC in a broth system under standard conditions, measured aliquots of growth media may be sub-cultured quantitatively to solid media to assess bactericidal activity. To calculate the extent of killing at each antibiotic concentration, plates are incubated under appropriate conditions, colony counts are performed and results are compared to that of the growth control well. The accepted definition of the minimum bactericidal concentration (MBC) is the lowest concentration of test compound at which a 99.9% (3 log) or greater reduction in growth compared with the initial inoculum is observed. […] (Table 4).

[6] = tested on: E. faecium ATCC27270; assay: Minimum bactericidal concentration assay; format: cell-based; settings: Enterococcus faecium
Procedure: as §1, §2

[7] = tested on: S. pyogens ATCC49399; assay: Minimum bactericidal concentration assay; format: cell-based; settings: Streptococcus
Procedure: as §1, §2

[8] = tested on: S. aureus ATCC25923; assay: Minimum bactericidal concentration assay; format: cell-based; settings: Staphylococcus aureus
Procedure: as §1, §2

[9] = tested on: S. pneumoniae ATCC49619; assay: Minimum bactericidal concentration assay; format: cell-based; settings: Streptococcus pneumoniae
Procedure: as §1, §2

[10] = tested on: S. epidermidis ATCC14990; assay: Minimum bactericidal concentration assay; format: cell-based; settings: Staphylococcus epidermidis
Procedure: as §1, §2

[11] = tested on: S. pneumoniae ATCC49619; assay: MIC assay, serial dilution; settings: Streptococcus pneumoniae
[12] = Mouse plasma pharmacokinetics
Procedure: For the mouse plasma pharmacokinetic analyses, the study was conducted in BALB/c mice with single dose of IV-3 mg/kg. Blood samples were collected at 10 time points/dose (0.25, 0.5, 1, 2, 4, 6, 8, 10, 12, and 24 h post dose). At each time point, blood samples were collected from 4 mice from the retro-orbital plexus. A terminal blood collection method was employed for collecting blood samples for each time point in all PK studies. […] The PK parameters were estimated by noncompartmental analysis.
Dose—mg/kg, AUC—ng. h/mL, Cmax-ng/mL, Tmax-h, Kel—1/h, Half-life-h, MRT-h, Clearance—mL/min/kg, Vd-L/kg, Bioavailability-%. IV—Intravenous, IP— Intraperitoneal, PO—Per oral.

[13] = tested on: E. coli ATCC25922; assay: MIC assay, serial dilution; settings: Escherichia coli
[14] = BALB/c, mouse, in vivo, iv, 3 mg/kg

## CC1(C)C2CN(c3ccc4nc5ccc(N6CC7C(C6)C7(C)C)cc5[s+]c4c3)CC21 (centres unmarked) [Compound 1, 3,7-Di(6,6-dimethyl-3-azabicyclo[3.1.0]hexan-N-yl)phenothiazinium iodide]
[1]
  MIC: 0.5 µg/mL
[2]; MRSA ATCC 43300, biofilm forming
  MBIC: 0.25
[2]; biofilm forming MRSA
  concentration inhibiting biofilm forming MRSA: 1 × MIC
[3]
  MIC: 0.25 µg/mL
[4]
  EC50: 500 nM
[5]
  MBC: 2 µg/mL
[6]
  MBC: 0.5 µg/mL
[7]
  MBC: 0.5 µg/mL
[8]
  MBC: 0.25 µg/mL
[9]
  MBC: 0.5 µg/mL
[10]
  MBC: 1 µg/mL
[11]
  MIC: 0.25 µg/mL
[12]; [14]
  AUC(0-inf): 2980 ng·h/mL
  AUC(0-t): 2710 ng·h/mL
  Cmax: 5620 ng/mL
  MRT: 7 h
  Tmax: 4.8 min
  Vd: 7 L/kg
  clearance: 17 mL/min/kg
  half-life: 10 h
[12]; mice, IV 3 mg/kg single dose
  Kel: 0.07 h⁻¹
[13]; ATCC25922, E. coli ATCC25922
  MIC: 4 µg/mL
[13]; ATCC25922, read-out: Anti-bacterial Activity (E. coli MIC (uM)), E. coli, Table 5
  MIC: 1.6 µM
